# Assay results as given in patent publication US20090142337A1, “Pharmaceutical Combinations of Diazole Derivatives for Cancer Treatment” (Astex Therapeutics Limited, priority 2006, published 2009).
# What was measured:
# HCT-116 cell line = test: Anti-proliferative activity (Alamar Blue assay); assay type: cell-based, human; details: for IC50: Homo sapiens, HCT-116, read-out: HCT-116 cell proliferation IC50
# Description: The anti-proliferative activities of compounds for use in the combinations of the invention can be determined by measuring the ability of the compounds to inhibition of cell growth in a number of cell lines. […] The method is based on the ability of viable cells to reduce resazurin to its fluorescent product resorufin. […] The number of viable cells is determined by Alamar Blue assay as before. Cell lines can be obtained from the ECACC (European Collection of cell Cultures).
# [1] = Determination of oral bioavailability; assay type: in vivo, balb/c mice; details: mice, oral route (5 mg/kg PO vs 1 mg/kg IV)
# Description: The oral bioavailability of the compounds for use in the combinations of the invention may be determined as follows.
# The test compound is administered as a solution both I.V. and orally to balb/c mice at the following dose level and dose formulations; • 1 mg/kg IV formulated in 10% DMSO/90% (2-hydroxypropyl)-β-cyclodextrin (25% w/v); and • 5 mg/kg PO formulated in 10% DMSO/20% water/70% PEG200.
# At various time points after dosing, blood samples are taken in heparinised tubes and the plasma fraction is collected for analysis. The analysis is undertaken by LC-MS/MS after protein precipitation and the samples are quantified by comparison with a standard calibration line constructed for the test compound. The area under the curve (AUC) is calculated from the plasma level vs time profile by standard methods. The oral bioavailability as a percentage is calculated from the following equation: […]
# [2] = tested on: human tumour derived cell lines; test: Xenograft studies; assay type: in vivo, nude mice; details: dosed orally
# Excerpt: These biomarkers include suppression of phosphorylation of substrates of the cyclin dependent kinases e.g. retinoblastoma protein.
# [3] = Vapour sorption/desorption analysis; assay type: physicochemical; details: 0 to 90% RH stepwise, 25 °C, total upon equilibration at 90% RH
# Description: Crystals of 4-(2,6-dichlorobenzoylamino)-1H-pyrazole-3-carboxylic acid (1-methanesulphonyl-piperidin-4-yl)-amide prepared by the recrystallisation method of Example 5 Step 8 were subjected to vapour sorption/desorption analysis in order to test for the propensity of this sample to form a hydrated state.
# Approximately 20 mg of sample was placed into a wire-mesh vapour sorption balance pan and loaded into an ‘IgaSorp’ vapour sorption balance (Hiden Analytical Instruments) held at 25+/−0.1° C. The sample was then dried by maintaining a 0% humidity environment (using mass flow control apparatus) until no further weight change was recorded. Subsequently, the sample was then subjected to a ramping profile from 0-90% relative humidity (% RH) at 10% RH increments, maintaining the sample at each step until equilibration had been attained (99.5% step completion).
# Upon reaching equilibration, the % RH within the apparatus was ramped to the next step and the equilibration procedure repeated. After completion of the sorption cycle, the sample was then dried using the same procedure. The weight change during the sorption/desorption cycles was then monitored, allowing for the hygroscopic nature of the sample to be determined.
# PKA = PKA (Homo sapiens, UniProt P17612); details: cited from earlier work
# PKG = details: cited from earlier work
# OVCAR-3 tumour cells = details: concentrations of 50 and 100 microM; cited from earlier work
# CML patients = details: CML blast phase; cited from earlier work
# CDK2/CyclinA = CDK2/CyclinA (Homo sapiens, UniProt P24941); test: Activated CDK2/CyclinA kinase inhibitory activity assay; assay type: biochemical
# Description: The reaction is allowed to proceed for 2 to 4 hours before being stopped with an excess of ortho-phosphoric acid (5 μl at 2%). γ^33P-ATP which remains unincorporated into the histone H1 is separated from phosphorylated histone H1 on a Millipore MAPH filter plate. The wells of the MAPH plate are wetted with 0.5% orthophosphoric acid, and then the results of the reaction are filtered with a Millipore vacuum filtration unit through the wells. Following filtration, the residue is washed twice with 200 μl of 0.5% orthophosphoric acid. Once the filters have dried, 20 μl of Microscint 20 scintillant is added, and then counted on a Packard Topcount for 30 seconds.
structure (smiles),measurement,setting,value
"CS(=O)(=O)N1CCC(NC(=O)c2n[nH]cc2NC(=O)c2c(Cl)cccc2Cl)CC1 [Example 1, 4-(2,6-dichloro-benzoylamino)-1H-pyrazole-3-carboxylic acid (1-methanesulphonyl-piperidin-4-yl)-amide]",more potent anti-proliferative effect on human colon cancer HCT-116 cell line compared to difluoro-analogue,HCT-116 cell line,6-7 fold
same,IC50,HCT-116 cell line,0.11 µM
same,bioavailability,"[1]; balb/c, mouse, plasma, oral, 5 mg/kg",40 to 50%
same,oral bioavailability,[1],30-100%
same,tumour biomarkers (phosphorylation of CDK substrates e.g. retinoblastoma protein),[2],inhibition of the tumour biomarkers
same,tumour growth in xenografts,[2]; xenografts implanted sub-cutaneously,inhibition of tumour growth
same,weight increase on vapour sorption,[3],0.24%
O=S(=O)(NCCNCC=C(c1ccccc1)c1ccccc1)c1cccc2cnccc12 [NL-71-101],IC50,PKA,9 µM
same,IC50,PKG,36 µM
same,apoptosis in OVCAR-3 tumour cells,OVCAR-3 tumour cells,induced apoptosis
Cc1ccc(NC(=O)c2ccc(CN3CCN(C)CC3)cc2)cc1Nc1nccc(-c2cccnc2)n1 [imatinib],duration of remissions,CML patients,2-6 months
CS(=O)(=O)N1CCC(NC(=O)c2n[nH]cc2NC(=O)c2c(F)cccc2F)CC1 [reference compound],selectivity for CDK inhibition over GSK3β,CDK2/CyclinA,~6 fold
same,IC50,HCT-116 cell line,0.74 µM
